Results published in publication PMC5215716, “A Target-Based Whole Cell Screen Approach To Identify Potential Inhibitors of Mycobacterium tuberculosis Signal Peptidase” (ACS Infectious Diseases, 2016).
Converted amounts (≈) assume the structure as drawn.

How the values were obtained:
[1] = test system: wild-type (wt) M. tuberculosis strain; experiment: microbe, parasite or virus in culture; format: cell-based, Mycobacterium tuberculosis; conditions: for MIC: Mycobacterium tuberculosis, 120 h, read-out: WT MIC
in vitro = format: cell-based, African green monkey; conditions: African green monkey
Method: Cytotoxicity against African green monkey adult kidney cell (Vero cells) was determined as previously described using CellTiter-Glo reagent.[44] The concentration causing 50% growth inhibition (IC50) was calculated by fitting the inhibition curves using the Levenberg–Marquardt algorithm.

LepB = target: T1, LepB (Mycobacterium tuberculosis, UniProt P9WKA1); experiment: LepB membrane assay (fluorogenic signal peptide cleavage by cell membrane fraction); format: biochemical; conditions: M. tuberculosis H37Rv cell membrane fraction, 2 μM peptide substrate, 4 h at 37 °C
T1 construct: we used purified membrane fractions to develop an in vitro assay for signal peptide cleavage; host or cells: γ-irradiated whole M. tuberculosis H37Rv; Triton X-114 membrane fraction
T1 sequence (P9WKA1 1-294): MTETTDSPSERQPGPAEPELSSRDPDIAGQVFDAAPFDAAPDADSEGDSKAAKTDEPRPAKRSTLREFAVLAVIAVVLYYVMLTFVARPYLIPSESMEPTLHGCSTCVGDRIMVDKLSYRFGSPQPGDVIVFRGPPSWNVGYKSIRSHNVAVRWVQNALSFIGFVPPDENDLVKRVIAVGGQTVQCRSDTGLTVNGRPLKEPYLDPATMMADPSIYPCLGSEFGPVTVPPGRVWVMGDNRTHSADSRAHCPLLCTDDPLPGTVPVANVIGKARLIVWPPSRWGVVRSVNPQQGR

[2] = test system: M. tuberculosis strain SPAM13C (LepB-UE); experiment: microbe, parasite or virus in culture; format: cell-based, Mycobacterium tuberculosis; conditions: for MIC: Mycobacterium tuberculosis, 120 h, read-out: LepB-UE MIC; for MIC / LepB-UE MIC: M. tuberculosis strain SPAM13C, OD590 after 5 days at 37 °C, average ± SD of at least two experiments, b = single value; for Change in potency against LepB-UE compared to compound 1: decrease in potency relative to compound 1
[3] = […], OD590 after 5 days at 37 °C, average ± SD of at least two experiments, b = single value

## C/C(=N\Nc1nc(C)cc(C)n1)c1ccccn1 [Compound 1]
[1]; [3]
  MIC: 18 ± 1 µM (≈ 4.34 µg/mL)
In vitro
  CC50: 2.3 µM
LepB
  IC50: 39 µM
[2]
  MIC: 3 ± 1.1 µM (≈ 0.724 µg/mL)

## Oc1ccccc1/C=N/Nc1nc(-c2ccccc2)cs1 [Compound 2]
[1]; [3]
  MIC: 43 ± 26 µM (≈ 12.7 µg/mL)
In vitro
  CC50: 13 µM
LepB
  IC50: > 200 µM
[2]
  MIC: 9.3 ± 3.2 µM (≈ 2.75 µg/mL)

## O=[N+]([O-])c1ccc(O)c(/C=N/Nc2ccccn2)c1 [Compound 3]
[1]; [3]
  MIC: 11 µM (≈ 2.84 µg/mL)
In vitro
  CC50: 2.9 µM
LepB
  IC50: 12 µM
[2]
  MIC: 4.7 µM (≈ 1.21 µg/mL)

## Cc1cnn(-c2cc(N/N=C/c3ccccc3O)ncn2)c1 [Compound 4]
[1]; [3]
  MIC: 10 ± 7 µM (≈ 2.94 µg/mL)
In vitro
  CC50: 9.2 µM
LepB
  IC50: > 200 µM
[2]
  MIC: 4.5 ± 2.5 µM (≈ 1.32 µg/mL)

## Cc1ccc2cc(C)c(N/N=C/c3cc(Br)ccc3O)nc2c1 [Compound 5]
[1]; [3]
  MIC: > 200 µM
In vitro
  CC50: 5 µM
LepB
  IC50: > 200 µM
[2]
  MIC: 7.4 ± 3.4 µM (≈ 2.74 µg/mL)

## Cc1nc2ccccc2nc1N/N=C/c1ccc(O)c(C)c1O [Compound 6]
[1]; [3]
  MIC: 26 ± 12 µM (≈ 8.02 µg/mL)
In vitro
  CC50: 8.7 µM
LepB
  IC50: > 200 µM
[2]
  MIC: 3.8 ± 1.3 µM (≈ 1.17 µg/mL)

## Cc1nc2ccccc2nc1N/N=C/c1c(O)ccc2ccccc12 [Compound 7]
[1]; [3]
  MIC: 14 ± 3 µM (≈ 4.6 µg/mL)
In vitro
  CC50: 5.2 µM
LepB
  IC50: 130 µM
[2]
  MIC: 3.9 ± 1.7 µM (≈ 1.28 µg/mL)

## Oc1ccc(/C=N/Nc2ccc3ccccc3n2)c(O)c1 [Compound 8]
[1]; [3]
  MIC: > 200 µM
In vitro
  CC50: 6.7 µM
LepB
  IC50: > 200 µM
[2]
  MIC: 3.6 ± 1.1 µM (≈ 1.01 µg/mL)

## Cc1ccc(Nc2nc(N/N=C/c3ccccc3O)nc(N3CCOCC3)n2)c(Br)c1 [Compound 9]
[1]; [3]
  MIC: 57 ± 24 µM (≈ 27.6 µg/mL)
In vitro
  CC50: 13 µM
LepB
  IC50: > 200 µM
[2]
  MIC: 11 ± 1 µM (≈ 5.33 µg/mL)

## COc1ccc(Nc2nc(NCc3ccco3)nc(N/N=C/c3ccccc3O)n2)cc1 [Compound 10]
[1]; [3]
  MIC: > 200 µM
In vitro
  CC50: 4.3 µM
LepB
  IC50: > 200 µM
[2]
  MIC: 5.4 ± 2.6 µM (≈ 2.33 µg/mL)

## C/C(=N\NC(=O)c1ccc(N2CCCC2=O)cc1)c1ccccn1 [Compound 11]
[1]; [3]
  MIC: < 10 µM
  WT MIC: 14 ± 7 µM
In vitro
  CC50: 6.1 µM
LepB
  IC50: 26 µM
[2]
  LepB-UE MIC: 3.5 ± 1.8 µM
  MIC: 3.5 to 15 µM (≈ 1.13 to 4.84 µg/mL)

## O=C(N/N=C/c1cccc2cccnc12)c1ccn(Cc2ccc(Cl)cc2)n1 [Compound 12]
[1]; [3]
  MIC: 22 ± 2 µM (≈ 8.58 µg/mL)
In vitro
  CC50: 34 µM
LepB
  IC50: > 200 µM
[2]
  LepB-UE MIC: 6.3 ± 3.5 µM
  MIC: 3.5 to 15 µM (≈ 1.36 to 5.85 µg/mL)

## O=C(N/N=C/c1cccc2cccnc12)c1ccn(Cc2ccc(Cl)cc2Cl)n1 [Compound 13]
[1]; [3]
  MIC: 18 ± 5 µM (≈ 7.64 µg/mL)
In vitro
  CC50: 21 µM
LepB
  IC50: > 200 µM
[2]
  LepB-UE MIC: 4.7 ± 0.6 µM
  MIC: 3.5 to 15 µM (≈ 1.49 to 6.36 µg/mL)

## CCOC(=O)CN1C(=O)/C(=N\NC(=O)c2ccccn2)c2ccccc21 [Compound 14]
[1]; [3]
  MIC: > 200 µM
In vitro
  CC50: 32 µM
LepB
  IC50: > 200 µM
[2]
  LepB-UE MIC: 4.9 ± 1.9 µM
  MIC: 3.5 to 15 µM (≈ 1.23 to 5.29 µg/mL)

## Cc1ccc(-c2cc(C(=O)N/N=C/c3ccccn3)[nH]n2)cc1 [Compound 15]
[1]; [3]
  MIC: > 200 µM
In vitro
  CC50: 63 µM
LepB
  IC50: > 200 µM
[2]
  LepB-UE MIC: 15 ± 2.5 µM

## N=C(N/N=C/c1cc([N+](=O)[O-])ccc1O)c1ccccn1 [Compound 16]
[1]; [3]
  MIC: > 200 µM
In vitro
  CC50: > 100 µM
LepB
  IC50: 119 µM
[2]
  MIC: 10 ± 3.4 µM (≈ 2.85 µg/mL)

## N=C(N/N=C/c1ccccc1O)c1ccccn1 [Compound 17]
[1]; relative to compound 16
  Increase in potency against wt compared to 16: ~4 fold
In vitro
  CC50: > 100 µM
[2]
  MIC: 6.7 ± 1.6 µM (≈ 1.61 µg/mL)

## C/C(=N\NC(=S)Nc1cccc(C)c1)c1ccccc1O [Compound 18]
[1]; [3]
  MIC: 18 ± 12 µM (≈ 5.39 µg/mL)
In vitro
  CC50: 11 µM
[2]
  MIC: 9 ± 5.8 µM (≈ 2.69 µg/mL)

## CSC(=S)N/N=C(\c1ccccc1)c1ccccn1 [Compound 19]
[1]; [3]
  MIC: 10 ± 3 µM (≈ 2.87 µg/mL)
In vitro
  CC50: 2.4 µM
[2]
  MIC: 6 ± 4.2 µM (≈ 1.72 µg/mL)

## C/C(=N\Nc1nc(C)cc(C)n1)c1ccco1 [Compound 20]
[1]; [3]
  MIC: > 200 µM
In vitro
  CC50: > 100 µM
LepB
  IC50: 74 µM
[2]
  Change in potency against LepB-UE compared to compound 1: at least 10 fold

## C/C(=N\Nc1nc(C)cc(C)n1)c1cccs1 [Compound 21]
[1]; [3]
  MIC: > 200 µM
In vitro
  CC50: > 100 µM
LepB
  IC50: 120 µM
[2]
  Change in potency against LepB-UE compared to compound 1: at least 10 fold

## C/C(=N\Nc1nc(C)cc(C)n1)c1ccccc1 [Compound 22]
[1]; [3]
  MIC: > 200 µM
In vitro
  CC50: > 100 µM
LepB
  IC50: > 200 µM
[2]
  Change in potency against LepB-UE compared to compound 1: at least 10 fold

## C/C(=N\Nc1nc(C)cc(C)n1)c1cccc(O)c1 [Compound 23]
[1]; [3]
  MIC: 115 µM (≈ 29.5 µg/mL)
In vitro
  CC50: > 100 µM
LepB
  IC50: 140 µM
[2]
  LepB-UE MIC: 54 ± 2 µM
  MIC: 30 to 90 µM (≈ 7.69 to 23.1 µg/mL)
  Change in potency against LepB-UE compared to compound 1: at least 10 fold
